Earlier results, collected in US8765743B2, “Compounds” (Glaxosmithkline Intellectual Property Development Limited, priority 2008, dated 2014).
pIC50: −log10 of the molar value. Like-named read-outs stand apart in the source and are kept apart here.

Tests used:
CK2 protein kinase = CK2 protein kinase (Homo sapiens, UniProt P68400)
Sequence of CK2 protein kinase (P68400 whole entry): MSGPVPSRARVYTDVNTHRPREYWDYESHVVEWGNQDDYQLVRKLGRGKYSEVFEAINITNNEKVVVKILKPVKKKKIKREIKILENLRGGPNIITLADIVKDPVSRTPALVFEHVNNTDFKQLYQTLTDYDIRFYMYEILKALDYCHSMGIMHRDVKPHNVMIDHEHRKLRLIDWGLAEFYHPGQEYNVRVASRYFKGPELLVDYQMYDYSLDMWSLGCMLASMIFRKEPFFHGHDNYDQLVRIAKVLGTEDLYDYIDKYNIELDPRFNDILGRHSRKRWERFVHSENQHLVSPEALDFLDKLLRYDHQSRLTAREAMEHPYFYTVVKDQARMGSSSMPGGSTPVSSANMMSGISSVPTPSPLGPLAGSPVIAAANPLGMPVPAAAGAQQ

In the case of `O=c1cc(N2CCOCC2)oc2c(-c3ccccc3)cccc12` [LY294002], the pIC50 (Class I PI3-kinases; Fruman et al. 1998, read-out: IC50 values against each of these PI3-kinases) is given as 4.70 to 4.82 and the pIC50 (CK2 protein kinase) is given as 5.00 to 5.30.
For wortmannin, the pIC50 (Class I PI3-kinases; read-out: IC50 values against each of the various Class I PI3-kinases) is given as 8.00 to 9.00.
